The text below walks through data of patent US20250333370A1, “METHOD FOR EXTRACTING 3,5-O-DICAFFEOYLQUINIC ACID FROM HUANGSHAN GONGJU AND ITS APPLICATION IN DRUGS FOR PROTECTING AGAINST ALCOHOLIC LIVER DAMAGE” (Hefei University of Technology, priority 2024, published 2025).

One data set has as its system AML-12 cells. Description: MTT cell survival, toxic effect of 3,5-O-dicaffeoylquinic acid on cells. Format: cell-based, mouse. The settings on record: for cell survival rate: AML-12 cells, 24 hours, MTT. As for the experimental part: AML-12 cells, mouse normal liver cells; 3-(4,5-dimethylthiazol-2-yl)-2,5-diphenyl-2H-tetrazolium-3-bromide (MTT), dimethyl sulfoxide (DMSO), reactive oxygen species (ROS) kit, superoxide dismutase (SOD) kit, malondialdehyde (MDA) kit, glutathione (GSH) kit; high-speed centrifuge, microplate reader, etc.
Logarithmically growing AML-12 cells are seeded into 96-well plates at a density of 0.8×10^5 cells/mL, and 100 μL of cell suspension is added to each well and incubated for 24 hours. In an alcohol treatment group, alcohol (0-1600 mM, DMEM dilution) is added to the incubator for 24 hours. In a 3,5-O-dicaffeoylquinic acid treatment group, 100 μL of 3,5-O-dicaffeoylquinic acid (100-1600 μg/mL, DMEM dilution) is added to the incubator for 24 hours. 120 μL of MTT (1 mg/mL) is added to each well and incubated for 4 h. The reaction solution is discarded; 150 μL DMSO is added, and OD value is measured at a wavelength of 490 nm after shaking for 10 minutes in the dark.

Data set [1] has as its system alcohol-induced AML-12 cells. Nature of the data set: Apoptosis and necrosis after alcohol damage (Hoechst, fluorescence microscope and flow cytometer). The data set is classed as cell-based, mouse. The note with it: 260 mM alcohol. As for the experimental part: AML-12 cells are treated with drugs (100, 200, 400 μg/mL) for 24 h, and then treated with 260 mM alcohol for 24 h. After trypsin digestion and PBS washing, probe from an apoptosis detection kit is added. First, incubation is conducted with 5 μL Hoechst (diluted in PBS) at 0° C. for 20 min. The supernatant is discarded after centrifugation, and the remaining is washed three times and resuspended in PBS. 10 μL of the resuspension is observed under a fluorescence microscope, and is further detected under a flow cytometer.

Data set [2] deals with alcohol-induced AML-12 cells. Description: ROS content determination (DCFH-DA, fluorescence microscope and flow cytometer). The data set is classed as cell-based, mouse. The settings on record: 260 mM alcohol. As for the experimental part: AML-12 cells are treated with drugs (100, 200, 400 μg/mL) for 24 h, and then treated with 260 mM alcohol for 24 h. After trypsin digestion and PBS washing, the probe from the ROS kit is added. First, incubation is conducted with 1 mL of DCFH-DA (diluted in serum-free DMEM) at 37° C. for 20 min. The supernatant is discarded after centrifugation, and the remaining is washed three times and resuspended in PBS. 10 μL of the resuspension is observed under a fluorescence microscope, and is further detected under a flow cytometer.

The test system of data set [3] is alcohol-induced AML-12 cells. Description: Determination of MDA, SOD, CAT and GSH content (kits). The data set is classed as cell-based, mouse. The settings on record: 260 mM alcohol. The source says:
Excessive ROS in cells can cause oxidative reactions in proteins and unsaturated fatty acids. MDA is the final product of the oxidation of polyunsaturated fatty acids and is a marker of lipid peroxidation in cells, which is widely used in studies on oxidative stress. SOD, CAT, and GSH are important antioxidant enzymes in the body and play an important role in the body's systematic resistance to oxidative stress. […] After trypsin digestion and PBS washing, the MDA, SOD, CAT, and GSH content in the cells are detected according to the guidance of corresponding kits.

In data set [4] the test system is alcohol-damaged AML-12 cells. Description: MTT cell survival, ameliorative effect on cell alcohol damage (260 mM alcohol). The settings on record: pretreatment 24 hours, then 260 mM alcohol 24 hours. The data set is classed as cell-based, mouse. As for the experimental part: Log-growing AML-12 cells are collected and digested, and then seeded into a 96-well plate at a density of 0.8×10^5 cells/mL per well. After 24 hours of cell proliferation, the control (and model) group is incubated with 100 μL of medium for 48 hours; the 3,5-O-dicaffeoylquinic acid treatment group is incubated with different concentrations of 3,5-O-dicaffeoylquinic acid for 24 hours, and the original medium is discarded; the cells (in model and drug treated group) are incubated in 100 μL of medium containing 260 mM alcohol for 24 hours. The absorbance measurement method is the same as the item 2 above.
Cell survival rate is calculated using the following formula: […]

Another data set relates to α-glucosidase. The settings on record: studies have shown; cited from earlier work.
Data set [5] concerns focal cerebral ischemia-reperfusion injury. The settings on record: rats; studies have shown; cited from earlier work.
The conditions of data set [6]: studies have shown; cited from earlier work.
Setting [7] is: 400 μg/mL pretreatment, fluorescence microscope.

Structures are written as SMILES.

As to `O=C(C=Cc1ccc(O)c(O)c1)OC1CC(O)(C(=O)O)CC(OC(=O)C=Cc2ccc(O)c(O)c2)C1O` (single isomer, unassigned) [3,5-O-dicaffeoylquinic acid], the cell survival rate entry with AML-12 cells (0-800 μg/mL) is listed as “increases significantly”; in the data set on AML-12 cells (1600 μg/mL, P<0.05), “decreases significantly”. The “toxicity to AML-12 cells” value in the data set on AML-12 cells (concentration range of 0-800 μg/mL) is on record as “non-toxic”. Besides, the “fluorescence intensity of apoptosis compared with the alcohol-treated group” value in data set [1] (setting [7]) is reported as “significantly reduces”. Further, the “cell survival rate (apoptosis/necrosis flow cytometry)” value in data set [1] (pretreatment with different concentrations, with the increase in drug concentration) is “gradually increases”. Further, the “ROS fluorescence intensity of the cells compared to the alcohol-treated group (model group)” value in data set [2] (setting [7]) was “significantly reduces”. Moreover, in data set [2] (100, 200, 400 μg/mL pretreatment, fluorescence microscope), the “fluorescence intensity of ROS versus model group, dependence on drug concentration” value was “gradually weakens with the increase of drug concentration”. Further, the “ROS peak fluorescence intensity, flow cytometry” value in data set [2] (pretreatment with different concentrations, as the drug concentration increases) is “shifts significantly to the right”. The “MDA content in cells, concentration of best effect” value in data set [3] (200 μg/mL pretreatment) is “most significant effect”. The GSH content in data set [3] (400 μg/mL pretreatment, increases from 53.39±2.16 mg/g protein) worked out at 82.14±1.67 mg/g protein. In addition, the “activity of CAT in cells” value in data set [3] (100-600 μg/mL pretreatment) is “significantly restore”. Also, the “activity of SOD in cells” value in data set [3] (100-600 μg/mL pretreatment) is given as “significantly restore”. Further, the “MDA content in cells” value in data set [3] (pretreatment at different concentrations) is listed as “significantly reduces”. Further, in data set [4] (400 μg/mL, highest cell survival rate), the “increase of cell survival rate compared with the model group” value was 19.90%. Moreover, in data set [4] (100-400 g/mL (so in the source)), the “survival rate of alcohol-damaged AML-12 cells compared with model group” value is on record as “significantly increase”. Moreover, in the data set with α-glucosidase, the α-glucosidase inhibition entry was “inhibits”. In data set [5], the “focal cerebral ischemia-reperfusion injury” value is “can mitigate”. Further, the antioxidant effects result in data set [6] is listed as “certain antioxidant effects”.
